Measurements as given in publication PMC8161486 (ACS Central Science, 2021).
“Also recorded” adds a separate entry of the source. Where two headings read alike, the source gives them in different places. One block for each molecule: values may come before it.

What was measured:
[1] = test system: MV4;11 cells; assay: qRT-PCR transcript abundance in MV4; type: cell-based, human
[2] = molecular target: T1, ENL YEATS domain (Homo sapiens, UniProt Q03111); conditions: 1 μM
T1 sequence (Q03111 1-148): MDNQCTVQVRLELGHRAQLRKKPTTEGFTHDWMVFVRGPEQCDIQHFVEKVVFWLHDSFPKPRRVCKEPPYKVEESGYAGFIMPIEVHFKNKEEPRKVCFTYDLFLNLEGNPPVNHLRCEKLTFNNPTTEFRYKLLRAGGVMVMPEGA

[3] = test system: 32 bromodomains; assay: BROMOscan profiling; conditions: 10 μM
[4] = molecular target: AF9(YEATS)-HiBiT (Homo sapiens, UniProt P42568); assay: AF9; type: cell-based
[5] = molecular target: YEATS4 YEATS domain (Homo sapiens, UniProt O95619); assay: SPR, biotinylated YEATS4 YEATS; type: binding
[6] = molecular target: YEATS2 YEATS domain (Homo sapiens, UniProt Q9ULM3); assay: Modified histone peptide array, YEATS2 YEATS; conditions: 10 and 50 μM
[7] = test system: HL-60; assay: Cell proliferation assay; type: cell-based; conditions: HL-60 (MLL wild-type AML), ENL-insensitive
[8] = test system: JURKAT; assay: Cell proliferation assay; type: cell-based; conditions: JURKAT (T-cell ALL), ENL-insensitive
[9] = molecular target: AF9 YEATS domain (Homo sapiens, UniProt P42568); assay: AF9 YEATS HTRF; type: binding
[10] = test system: MV4;11 cells; assay: Quant-seq 3′ mRNA sequencing in MV4; type: cell-based, human; conditions: MV4;11, 4 h
[11] = test system: MV4;11 cells; assay: 72 h viability assay; type: cell-based, human; conditions: MV4;11, 72 h
[12] = test system: MOLM-13; assay: Cell proliferation assay; type: cell-based; conditions: MOLM-13 (MLL-AF9 AML), ∼2 weeks
[13] = test system: MV4;11 cells; assay: Cell cycle analysis; type: cell-based, human; conditions: MV4;11, 72 h
[14] = test system: MV4;11; assay: Cell proliferation assay; type: cell-based, human; conditions: MV4;11 (MLL-AF4 AML), ∼2 weeks
[15] = molecular target: YSK4 (also known as MAP3K19) (Homo sapiens, UniProt Q56UN5); assay: KdELECT affinity determination of scanMAX hits; type: binding
[16] = test system: OCI/AML-2; assay: Cell proliferation assay; type: cell-based; conditions: OCI/AML-2 (MLL-AF6 AML), ∼2 weeks
[17] = test system: HB11;19; assay: Cell proliferation assay; type: cell-based; conditions: HB11;19 (MLL-ENL fusion), ∼2 weeks
[18] = test system: MOLT-4; assay: Cell proliferation assay; type: cell-based; conditions: MOLT-4 (T-cell ALL), up to 10 μM
[19] = test system: 786-O; assay: Cell proliferation assay; type: cell-based; conditions: 786-O (renal cell carcinoma), 10 μM
[20] = test system: 468 kinases; assay: KINOMEscan profiling; conditions: 10 μM, 468 kinases tested
[21] = molecular target: BRD4 BD1 (Homo sapiens, UniProt O60885); assay: BRD4 BD1 HTRF counter-screen; type: binding
[22] = molecular target: T2, ENL (Homo sapiens, UniProt Q03111); assay: ENL ChIP-qPCR / ChIP-seq in MV4
T2 sequence (Q03111 1-559): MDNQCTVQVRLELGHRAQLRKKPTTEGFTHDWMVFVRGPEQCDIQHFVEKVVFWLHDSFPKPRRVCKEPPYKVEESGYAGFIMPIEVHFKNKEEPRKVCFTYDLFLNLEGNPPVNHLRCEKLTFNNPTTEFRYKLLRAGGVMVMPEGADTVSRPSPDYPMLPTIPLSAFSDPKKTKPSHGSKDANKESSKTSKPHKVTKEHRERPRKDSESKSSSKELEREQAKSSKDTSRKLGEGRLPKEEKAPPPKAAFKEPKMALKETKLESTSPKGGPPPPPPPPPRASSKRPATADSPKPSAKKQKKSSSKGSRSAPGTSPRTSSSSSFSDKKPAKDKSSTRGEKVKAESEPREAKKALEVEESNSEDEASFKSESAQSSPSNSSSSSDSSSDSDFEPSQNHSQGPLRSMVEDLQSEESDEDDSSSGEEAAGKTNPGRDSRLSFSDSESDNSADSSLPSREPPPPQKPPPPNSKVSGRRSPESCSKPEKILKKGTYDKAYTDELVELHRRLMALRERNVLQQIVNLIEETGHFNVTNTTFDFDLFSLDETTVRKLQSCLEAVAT

[23] = molecular target: T1, ENL YEATS domain; assay: ENL-H3K27cr HTRF
[24] = molecular target: ENL(YEATS)-HiBiT (Homo sapiens, UniProt Q03111); assay: ENL; type: cell-based
[25] = molecular target: AF9 (V5) (Homo sapiens, UniProt P42568); assay: AF9-V5 degradation by immunoblot in MOLM-13 cells; type: cell-based; conditions: 4 h treatment
[26] = molecular target: T2, ENL; assay: ENL degradation by immunoblot; type: cell-based; conditions: for DC50: read-out: ENL DC50, 4 h treatment
[27] = test system: MV4;11 cells; assay: TMT-based whole proteome analysis of MV4; type: cell-based, human; conditions: 10 μM
[28] = ENL-H3K27cr HTRF IC50, purified compound

Sequence of AF9 YEATS domain (P42568 1-138 limits assumed): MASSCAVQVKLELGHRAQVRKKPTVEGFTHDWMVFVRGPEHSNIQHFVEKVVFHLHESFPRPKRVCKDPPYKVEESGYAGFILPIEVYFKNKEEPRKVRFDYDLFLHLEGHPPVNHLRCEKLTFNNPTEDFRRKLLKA
Sequence of AF9(YEATS)-HiBiT (P42568 1-138 limits assumed): as above
Sequence of YSK4 (also known as MAP3K19) (Q56UN5 whole entry): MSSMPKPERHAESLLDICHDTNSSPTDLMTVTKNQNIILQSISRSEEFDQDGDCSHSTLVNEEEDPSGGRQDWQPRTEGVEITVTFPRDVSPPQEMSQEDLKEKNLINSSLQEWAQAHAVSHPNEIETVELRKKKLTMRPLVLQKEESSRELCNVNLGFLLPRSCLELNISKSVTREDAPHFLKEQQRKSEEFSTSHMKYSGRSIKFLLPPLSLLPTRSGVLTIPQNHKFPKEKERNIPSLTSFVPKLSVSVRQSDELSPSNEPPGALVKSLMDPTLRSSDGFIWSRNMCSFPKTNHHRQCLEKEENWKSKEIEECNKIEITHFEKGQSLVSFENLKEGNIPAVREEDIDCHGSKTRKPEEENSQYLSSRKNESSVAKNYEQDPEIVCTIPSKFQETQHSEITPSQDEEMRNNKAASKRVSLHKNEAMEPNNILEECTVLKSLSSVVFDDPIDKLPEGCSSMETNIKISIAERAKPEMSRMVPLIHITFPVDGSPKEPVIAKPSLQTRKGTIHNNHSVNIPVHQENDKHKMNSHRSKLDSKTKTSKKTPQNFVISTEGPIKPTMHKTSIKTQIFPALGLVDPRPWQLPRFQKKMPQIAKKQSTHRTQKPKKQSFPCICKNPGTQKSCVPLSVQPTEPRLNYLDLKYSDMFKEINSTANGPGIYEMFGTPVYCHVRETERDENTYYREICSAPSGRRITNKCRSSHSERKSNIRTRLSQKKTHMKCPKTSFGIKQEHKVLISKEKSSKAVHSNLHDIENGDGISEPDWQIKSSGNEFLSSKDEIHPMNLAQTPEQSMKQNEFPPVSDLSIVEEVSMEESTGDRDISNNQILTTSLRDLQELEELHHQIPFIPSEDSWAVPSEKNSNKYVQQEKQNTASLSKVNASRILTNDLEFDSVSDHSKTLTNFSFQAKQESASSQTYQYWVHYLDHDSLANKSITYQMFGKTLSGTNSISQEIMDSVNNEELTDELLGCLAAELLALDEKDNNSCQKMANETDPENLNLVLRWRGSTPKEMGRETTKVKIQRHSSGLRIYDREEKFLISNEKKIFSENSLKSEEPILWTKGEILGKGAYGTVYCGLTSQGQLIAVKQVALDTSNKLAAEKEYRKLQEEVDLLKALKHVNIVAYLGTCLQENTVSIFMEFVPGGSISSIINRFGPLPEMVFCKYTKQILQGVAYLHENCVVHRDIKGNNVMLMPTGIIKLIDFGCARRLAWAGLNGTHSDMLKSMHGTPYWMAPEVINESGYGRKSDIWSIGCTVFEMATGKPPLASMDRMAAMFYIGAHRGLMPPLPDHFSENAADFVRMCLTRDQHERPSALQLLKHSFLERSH
Sequence of YEATS2 YEATS domain (Q9ULM3 200-345 limits assumed): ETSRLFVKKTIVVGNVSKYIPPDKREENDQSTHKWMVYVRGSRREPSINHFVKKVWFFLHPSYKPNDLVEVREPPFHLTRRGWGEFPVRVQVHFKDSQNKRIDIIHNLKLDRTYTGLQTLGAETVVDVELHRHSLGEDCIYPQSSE
Sequence of AF9 (V5) (P42568 whole entry): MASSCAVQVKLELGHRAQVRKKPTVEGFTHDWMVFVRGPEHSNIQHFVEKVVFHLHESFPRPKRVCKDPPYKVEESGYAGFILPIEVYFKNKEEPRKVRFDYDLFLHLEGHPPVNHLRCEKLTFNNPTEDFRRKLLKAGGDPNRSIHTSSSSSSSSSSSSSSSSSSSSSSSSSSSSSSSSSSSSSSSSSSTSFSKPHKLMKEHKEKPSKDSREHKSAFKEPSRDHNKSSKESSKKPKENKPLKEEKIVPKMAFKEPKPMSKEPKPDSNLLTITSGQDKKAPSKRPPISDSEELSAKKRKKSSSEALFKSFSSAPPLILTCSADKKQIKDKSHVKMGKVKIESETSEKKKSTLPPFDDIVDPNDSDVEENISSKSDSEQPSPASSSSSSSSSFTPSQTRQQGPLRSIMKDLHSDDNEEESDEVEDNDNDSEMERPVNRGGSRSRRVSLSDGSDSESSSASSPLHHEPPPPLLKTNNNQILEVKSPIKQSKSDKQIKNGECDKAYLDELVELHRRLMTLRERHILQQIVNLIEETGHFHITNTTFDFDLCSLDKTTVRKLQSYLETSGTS
Sequence of YEATS4 YEATS domain (O95619 13-158): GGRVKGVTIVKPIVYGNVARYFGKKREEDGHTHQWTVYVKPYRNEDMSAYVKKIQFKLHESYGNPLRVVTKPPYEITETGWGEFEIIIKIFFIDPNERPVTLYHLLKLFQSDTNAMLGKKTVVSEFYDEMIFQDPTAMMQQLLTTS

- transcript abundance of HMGCR and HMGCS1 (SREBP targets, off-target effect) ([1]; MV4;11, most prominent at 10 μM): upregulation
- ENL recognition of acetyllysine on histone peptide arrays [2]: completely inhibited
- EC50 [4]: 0.076 µM
- binding to the YEATS4 YEATS domain by SPR [5]: virtually no binding
- YEATS2 recognition of acetyllysine on histone peptide arrays [6]: minimal effects
- IC50 [9]: 0.311 µM
- lower affinity for YSK4 than for ENL YEATS [15]: over 100 fold
- activity against BRD4 BD1 by HTRF [21]: inactive
- ENL ChIP-seq signal genome-wide ([22]; MV4;11): bulk displacement of ENL from chromatin
- ENL ChIP-qPCR enrichment at ENL binding sites (HOXA10 gene body, MYB promoter) ([22]; MV4;11, 4 h): dose-dependent eviction of ENL
SMILES: O=C(NC1CCC1)c1ccc2nc(-c3cccc(NS(=O)(=O)NCCN4CCCCC4)c3)cn2c1 [SR-0813, N-Cyclobutyl-2-(3-((N-(2-(piperidin-1-yl)ethyl)sulfamoyl)amino)phenyl)imidazo[1,2-a]pyridine-6-carboxamide]
- abundance of the ITGAM transcript (CD11b) ([1]; MV4;11): increased abundance
- transcript abundance of HOXA9, MEIS1 and MYC ([1]; MV4;11, from 3 h to at least 3 days, 1 and 10 μM): downregulated
- bromodomain off targets (BROMOscan, bromoMAX) [3]: not a single bromodomain off target was identified
- effect on cell growth [7]: unaffected; also recorded: muted antiproliferative activity
- effect on cell growth [8]: unaffected; also recorded: muted antiproliferative activity
- expression of ENL target genes (3′ mRNA-seq) [10]: strikingly selective suppression of ENL target genes
- global gene expression (3′ mRNA-seq) [10]: did not elicit global changes in gene expression
- effect on viability [11]: minimal effects
- effect on cell growth [12]: inhibited the growth
- cell cycle distribution [13]: decrease in the number of cells at the G2 stage of the cell cycle
- effect on cell growth [14]: inhibited the growth
- effect on cell growth [16]: inhibited the growth
- effect on cell growth [17]: inhibited the growth
- effect on cell growth [18]: neither the T-cell ALL cell line, MOLT-4, nor the renal cell carcinoma cell line, 786-O, were affected
- effect on cell growth [19]: neither the T-cell ALL cell line, MOLT-4, nor the renal cell carcinoma cell line, 786-O, were affected
- number of kinases identified as potential off targets (KINOMEscan, scanMAX) [20]: 4

- IC50 ([23]; ENL YEATS HTRF IC50, purified compound): 0.23 µM
- IC50 [23, 28]: 0.232 µM
- improvement in potency compared to the initial screening hit ([23]; HTRF IC50 ratio): 30 fold
- EC50 [24]: 1.5 µM
SMILES: CC(C)NC(=O)c1ccc2nc(-c3cccc(NS(=O)(=O)NCCc4c[nH]cn4)c3)cn2c1 [compound 7]

- degradation of exogenously expressed AF9-V5 [25]: degraded
- time ENL degradation is sustained by a single dose ([26]; 10 μM): 24 h
- time to maximal ENL degradation ([26]; 10 μM, MV4;11 cells): ≤ 4 h
- DC50 ([26]; MOLM-13 cells): 0.311 µM
- DC50 ([26]; OCI/AML-2 cells): 1.65 µM
- off-target degradation of IKZF1 [27]: weak off-target degradation
SMILES: O=C(COc1cccc2c1C(=O)N(C1CCC(=O)NC1=O)C2=O)NCCOCCOCCNS(=O)(=O)Nc1cccc(-c2cn3cc(C(=O)NC4CCC4)ccc3n2)c1 (stereo not drawn) [SR-1114, N-Cyclobutyl-2-(3-((N-(2-(2-(2-(2-((2-(2,6-dioxopiperidin-3-yl)-1,3-dioxoisoindolin-4-yl)oxy)acetamido)ethoxy)ethoxy)ethyl)sulfamoyl)amino)phenyl)imidazo[1,2-a]pyridine-6-carboxamide]
- change in ENL abundance across the proteome ([27]; 4 and 16 h): strongest change in abundance across the proteome
- abundance of ENL target genes (HOXA10, MYC, MYB, FLT3, ZEB2, SATB1) ([27]; 16 h): preferential suppression of multiple ENL target genes
- abundance of myeloid differentiation marker CD11b ([27]; 16 h): increased the abundance

- activity against ENL YEATS [23]: complete ablation of activity
- IC50 [23, 28]: > 50 µM
- EC50 [24]: > 20 µM
SMILES: CC(C)N(C)C(=O)c1ccc2nc(-c3ccccc3)cn2c1 [compound 2, N-Isopropyl-N-methyl-2-phenylimidazo[1,2-a]pyridine-6-carboxamide]
